pIC50: −log10 of the molar value. Where two headings read alike, the source gives them in different places.
Tests used:
[1] = target: T1, OR1/OR7 (Anopheles gambiae, UniProt Q7QCC7+Q8WTE7); test: Ca2+-imaging of stable HEK293T cell line OR1/OR7; assay type: cell-based
T1 construct: Full-length cDNAs for mosquito (Anopheles gambiae) odorant receptor (OR1, OR2, OR7, OR8, OR28); expressed in transfected cells
T1 sequence (Q8WTE7 1-417): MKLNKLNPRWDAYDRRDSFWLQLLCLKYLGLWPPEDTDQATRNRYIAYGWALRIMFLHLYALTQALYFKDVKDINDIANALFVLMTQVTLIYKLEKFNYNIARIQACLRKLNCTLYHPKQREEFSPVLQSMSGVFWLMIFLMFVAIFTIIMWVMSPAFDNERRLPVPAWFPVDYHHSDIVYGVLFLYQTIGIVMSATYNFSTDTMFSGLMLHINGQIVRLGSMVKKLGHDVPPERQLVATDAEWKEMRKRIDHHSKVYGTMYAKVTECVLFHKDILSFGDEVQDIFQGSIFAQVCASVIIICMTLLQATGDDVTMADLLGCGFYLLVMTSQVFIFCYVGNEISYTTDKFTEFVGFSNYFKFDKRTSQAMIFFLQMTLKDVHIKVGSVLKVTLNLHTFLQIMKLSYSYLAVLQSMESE
T1 sequence (Q7QCC7 1-478): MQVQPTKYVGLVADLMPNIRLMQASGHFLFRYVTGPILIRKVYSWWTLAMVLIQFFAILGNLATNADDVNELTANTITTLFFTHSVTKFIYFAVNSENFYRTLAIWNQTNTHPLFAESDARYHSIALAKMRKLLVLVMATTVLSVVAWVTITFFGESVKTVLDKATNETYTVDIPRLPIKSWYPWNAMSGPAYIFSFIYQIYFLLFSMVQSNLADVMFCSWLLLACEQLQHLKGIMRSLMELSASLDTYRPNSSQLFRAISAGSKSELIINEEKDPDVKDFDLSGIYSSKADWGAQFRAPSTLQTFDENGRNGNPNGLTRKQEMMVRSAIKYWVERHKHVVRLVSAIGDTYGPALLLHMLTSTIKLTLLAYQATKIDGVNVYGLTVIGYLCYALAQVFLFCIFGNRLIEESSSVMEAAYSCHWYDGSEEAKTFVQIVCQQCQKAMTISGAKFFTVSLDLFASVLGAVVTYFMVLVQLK
Method: (§1) Full-length cDNAs for mosquito (Anopheles gambiae) odorant receptor (OR1, OR2, OR7, OR8, OR28), and fly (Drosophila melanogaster) odorant receptor (Or47a, Or83b), mouse TRP channel (TRPM8), and mouse serotonin receptor (5HT3) were obtained and subcloned into mammalian expression vectors. The following mammalian expression vectors were used:
(§2) Stable cell lines OR1/OR7, OR2/OR7, OR8/OR7, OR10/OR7, OR28/OR7 and TRPM8 were generated from HEK293T cells. HEK293T-based cell lines were cultured in DMEM supplemented with these additional antibiotics: 6 μg/mL blasticidin and 1 μg/mL puromycin, with the exception of the TRPM8 cell lines, which was cultured in DMEM supplemented with 1 μg/mL puromycin.
(§3) Cells were trypsinized and split into 35 mm dishes one day before transfection. Confluent cells (60-70%) in 35 mm dishes were transfected with 1 μg of insect OR(X) plasmids in pME18s-bla and 1 μg of OR7-pME18s-puro using lipofectamine 2000. For Anopheles odorant receptors, two plasmids were co-transfected into HEK cells: the ligand-specific receptor (OR1, OR2, OR8, OR28) and the corresponding olfactory co-receptor: OR7. Cell lines containing TRPM8 were transfected with single plasmid.
(§4) Stable cell lines were cultured in 10 cm dishes, and confluent cells (70-80%) were trypsinized. 10,000 cells/20 μL were transferred into each well of 384-well plates coated with poly-D-lysine, and cultured for 2 days. For Flip-In T-Rex cells (cell lines expressing Or47a/Or83b and 5HT3), 5 μL of tetracycline (5 μg/mL) were added 1 day before the assay. 20 μL of Ca-4 dye was loaded into each well for 1.5 hr at room temperature in the dark, and the dye-loaded plates were subjected to Ca^2+-imaging using a Hamamatsu FDSS6000 real time fluorescence plate reader. Odorant solutions (9× final concentration) were prepared by dissolving 1M stock solutions into Hank's Buffered Salt Solution (HBSS), and 30 μL of odor solution was transferred to each well in 384-well plates.
(§5) Compounds ([…] in DMSO) were stored in 384-well plates, and last two columns (32 wells total) contained only DMSO. 200 nL of small compounds were transferred into the odorant plates before the assay using the Perkin-Elmer Janus workstation. The odorant plates were spun down to remove air bubbles, and placed on the FDSS6000 plate loader, and 5 μL of odorant solution was applied to the cell plate on the FDSS6000. Ca^2+ increase was monitored with fluorescence at 525 nm by excitation at 485 nm.

[2] = target: T2, OR2/OR7 (Anopheles gambiae, UniProt Q7QCC7+Q8WTE6); test: Ca2+-imaging of stable HEK293T cell line OR2/OR7; assay type: cell-based
T2 construct: Full-length cDNAs for mosquito (Anopheles gambiae) odorant receptor (OR1, OR2, OR7, OR8, OR28); expressed in transfected cells
T2 sequence (Q8WTE6 1-378): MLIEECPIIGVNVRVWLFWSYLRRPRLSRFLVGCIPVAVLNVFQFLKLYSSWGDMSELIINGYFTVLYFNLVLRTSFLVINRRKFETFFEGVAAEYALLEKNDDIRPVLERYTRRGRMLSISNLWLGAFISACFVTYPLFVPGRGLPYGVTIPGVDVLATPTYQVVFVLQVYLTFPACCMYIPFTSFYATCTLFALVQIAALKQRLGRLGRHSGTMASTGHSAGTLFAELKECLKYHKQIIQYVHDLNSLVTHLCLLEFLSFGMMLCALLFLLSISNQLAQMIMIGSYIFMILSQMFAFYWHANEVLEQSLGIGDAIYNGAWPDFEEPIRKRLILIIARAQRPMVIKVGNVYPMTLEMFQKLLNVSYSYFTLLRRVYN
T2 sequence (Q7QCC7 1-478): T1 sequence (Q7QCC7 1-478)
Method: as §1, §2, §3, §4, §5

[3] = tested on: ab5 neuron that expresses the Or47a/Or83b receptor; test: Single sensillum recordings of fly olfactory neurons; assay type: in vivo, Drosophila melanogaster
Method: Female flies (Drosophila melanogaster) of the w^1118 genotype were immobilized by inserting single adult flies into the wide end of a 200 μL pipette tip, and mounting this on a microscope cover glass with a piece of wax. Antennal olfactory neurons of immobilized flies were subjected to extracellular recording using a Syntech 10x AC probe connected to a Syntech IDAC4 amplifier. The recording electrode was inserted into the ab5 sensillum, which contains two olfactory sensory neurons (OSNs), and the reference electrode was placed into the eye. Action potentials in the OSNs induced by odorant stimulation were recorded. 15 μL of odorant [3-methyl-thio-1-propanol; diluted (v/v) in paraffin oil (10^−5 to 10^−3 dilution)], was applied to a filter strip, and 10 μL of test compounds, DEET, or solvent (100% ethanol) was applied on a second filter strip. Both filter strips were placed into a Pasteur glass pipette connected to the Syntech CS55 stimulus device, and applied to the fly antenna for 1 sec. Corrected spike increases were computed by subtracting the average spontaneous activity in 1 sec before odorant stimulus from the average activity during the stimulus.
The effect of selected compounds on odor-evoked action potentials was measured from the ab5 antennal sensillum, which houses the olfactory neuron that expresses the Or47a/Or83b receptor.

[4] = ligand 4-methyl phenol 30 μM, read-out: IC50 OR1 OR7
[5] = ligand 2-methyl phenol 30 μM, read-out: IC50 OR2 OR7

SMILES | pIC50 [1, 4] | pIC50 [2, 5] | suppression of 3-methyl-thio-1-propanol (3MTP)-evoked action potentials in the ab5 neuron ([3]; 10 mg dose on a filter paper) | pIC50 [1] | pIC50 [2] | suppression of 3-methyl-thio-1-propanol (3MTP)-evoked action potentials in the ab5 neuron ([3]; 3.5 mg dose on a filter paper)
Fc1cccc(Cl)c1Cn1ccnc1CN(CC1CCCC1)C1CC1 [RU-I4] | > 5.70 | 4.70 to 5.70 |  |  |  | 
O=C(c1nccn1Cc1c(F)cccc1Cl)N(CC1CCCC1)C1CC1 [RU-I3] | > 5.70 | 4.70 to 5.70 |  |  |  | 
CC(C)Nc1nc(Cl)nc(NC(C)C)n1 [RU-T1] | > 5.70 | > 5.70 |  |  |  | 
CCNc1nc(NCC)nc(SC)n1 [RU-T4] | 4.70 to 5.70 | 4.30 to 4.70 |  |  |  | 
CN(Cc1nccn1Cc1c(F)cccc1Cl)C(=O)C1CCCC1 [RU-I5] | > 5.70 | > 5.70 | inhibits responses elicited by 10^−3 to 5×10^−5 dilutions of 3MTP |  |  | 
CCNc1nc(Cl)nc(NC(C)C)n1 [RU-T5] |  |  |  | > 5.70 | > 5.70 | 
CC(C)Nc1nc(NC(C)C)nc(C(F)(F)F)n1 [RU-T8] | > 5.70 | > 5.70 |  |  |  | 
CCNc1nc(NC(C)C)nc(SC)n1 [RU-T3] |  |  |  | < 3.66 | 4.70 to 5.70 | 
CSc1nc(NC(C)C)nc(NC(C)C)n1 [RU-T2] |  |  |  | 4.70 to 5.70 | 4.70 to 5.70 | 
Cc1nc(NC(C)C)nc(NC(C)C)n1 [RU-T6] | 4.70 to 5.70 | < 4.70 |  |  |  | 
CCN(CC)C(=O)c1cccc(C)c1 [DEET, N,N-diethyl-m-toluamide, reference compound] |  |  |  | < 3.13 | < 4.70 | 
CC(C)Nc1nc(Cl)nc(NCc2ccccc2)n1 [RU-T9] | > 5.70 | < 4.70 |  |  |  | 
CC(C)Nc1nc(Cl)nc(N(C)C(C)C)n1 [RU-T7] | > 5.70 | > 5.70 |  |  |  | 
C=CCN(Cc1nccn1Cc1cccc(F)c1)C(=O)c1ccccc1F [RU-I1] | > 5.70 | > 5.70 | inhibits responses elicited by 10^−3 to 10^−5 dilutions of 3MTP |  |  | inhibits responses elicited by 5×10^−4 to 10^−5 dilutions of 3MTP
O=C(C1CCCC1)N(Cc1nccn1CCc1c(F)cccc1Cl)C1CC1 [RU-I2] | > 5.70 | > 5.70 | inhibits responses elicited by 10^−3 to 10^−5 dilutions of 3MTP |  |  | inhibits responses elicited by 10^−4 to 10^−5 dilutions of 3MTP

From patent US20130324522A1, “INSECT ODORANT RECEPTOR ANTAGONISTS” (THE ROCKEFELLER UNIVERSITY, priority 2010, published 2013)
